Measured values: ChEMBL document CHEMBL1201862, “PubChem BioAssay data set” (2004)
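Each compound was tested at five concentrations against cells in 96-well plates for 48 hours. GI50: concentration for 50% inhibition of growth.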 Active and inactive are the calls of the source. Cut-off read from the data, not from the text of the source: active = GI50 up to about 1.1 µM and inactive = higher.

How the values were obtained:
Experiment in all cases: growth of human tumour cells (NCI), 48 h
[1] = system: 786-0
[2] = system: A549
[3] = system: ACHN
[4] = system: BT-549
[5] = system: HL-60
[6] = system: MCF7
[7] = system: MDA-MB-231
[8] = system: NCI-H23
[9] = system: NCI/ADR-RES
[10] = system: OVCAR-3
[11] = system: RPMI-8226
[12] = system: SF-268
[13] = system: SK-MEL-5
[14] = system: SK-OV-3
[15] = system: SN12C
[16] = system: SNB-75
[17] = system: TK-10
[18] = system: U-251
[19] = system: UO-31

Row | SMILES | GI50 [1] | GI50 [2] | GI50 [3] | GI50 [4] | GI50 [5] | GI50 [6] | GI50 [7] | GI50 [8] | GI50 [9] | GI50 [10] | GI50 [11] | GI50 [12] | GI50 [13] | GI50 [14] | GI50 [15] | GI50 [16] | GI50 [17] | GI50 [18] | GI50 [19]
1 | CCOC(=O)C(NC(=O)c1ccccc1)(Nc1cc(C)on1)C(F)(F)F (centres undefined) | > 100 µM (inactive) | > 100 µM (inactive) | > 100 µM (inactive) | > 100 µM (inactive) | > 100 µM (inactive) | > 100 µM (inactive) | 10.9 µM (inactive) | > 100 µM (inactive) | > 100 µM (inactive) | > 100 µM (inactive) | > 100 µM (inactive) | > 100 µM (inactive) | > 100 µM (inactive) | > 100 µM (inactive) | > 100 µM (inactive) | > 100 µM (inactive) | > 100 µM (inactive) | > 100 µM (inactive) | > 100 µM (inactive)
2 | COC(=O)C1=C(C(=O)OC)C2OC1c1cc3ccccc3cc12 | 1.76 µM (inactive) | 18.7 µM (inactive) | 1.63 µM (inactive) | 5.47 µM (inactive) | 0.0841 µM (active) | 8.89 µM (inactive) | 17.7 µM (inactive) | 5.96 µM (inactive) | 10.8 µM (inactive) | 2.88 µM (inactive) | 2.33 µM (inactive) | 18.3 µM (inactive) | 16.9 µM (inactive) | 18.8 µM (inactive) | 16.4 µM (inactive) | 23.3 µM (inactive) | 5.2 µM (inactive) | 17.3 µM (inactive) | 1.54 µM (inactive)
3 | CCOC(=O)CCc1cccc2c1oc1c(CCNC(=O)OCC3c4ccccc4-c4ccccc43)cccc12 | 37.2 µM (inactive) | > 100 µM (inactive) | 44.3 µM (inactive) | 22.5 µM (inactive) | > 100 µM (inactive) | 36.4 µM (inactive) | 16.2 µM (inactive) | 25.6 µM (inactive) | 58.6 µM (inactive) | 49 µM (inactive) | > 100 µM (inactive) | 25.2 µM (inactive) | 29.2 µM (inactive) | 49 µM (inactive) | > 100 µM (inactive) | 13.1 µM (inactive) | 40.4 µM (inactive) | 57.3 µM (inactive) | 34.9 µM (inactive)
4 | O=[N+]([O-])c1cc2ccc(N(CCO)CCO)nc2nc1N(CCO)CCO | > 100 µM (inactive) | > 100 µM (inactive) | > 100 µM (inactive) | > 100 µM (inactive) | > 100 µM (inactive) | > 100 µM (inactive) | > 100 µM (inactive) | > 100 µM (inactive) | > 100 µM (inactive) | > 100 µM (inactive) | > 100 µM (inactive) | > 100 µM (inactive) | > 100 µM (inactive) | > 100 µM (inactive) | > 100 µM (inactive) | > 100 µM (inactive) | > 100 µM (inactive) | > 100 µM (inactive) | > 100 µM (inactive)
5 | Cc1[nH]nc(C(=O)N/N=C/c2cccs2)c1/N=N\N(C)C | 13.6 µM (inactive) | 10.5 µM (inactive) | 2.96 µM (inactive) | 11.9 µM (inactive) | 1.99 µM (inactive) | 3.94 µM (inactive) | 23.1 µM (inactive) | 12.6 µM (inactive) | 21.1 µM (inactive) | 22.4 µM (inactive) | 18.3 µM (inactive) | 9.4 µM (inactive) | 19.6 µM (inactive) | 19.8 µM (inactive) | 22 µM (inactive) | 2.89 µM (inactive) | 23.5 µM (inactive) | 10.3 µM (inactive) | 2.49 µM (inactive)
6 | CCOC(=O)CN1CC(C2=C(O)CN(CC(=O)OCC)C2=O)=CC1=O | > 100 µM (inactive) | > 100 µM (inactive) | > 100 µM (inactive) | > 100 µM (inactive) | > 100 µM (inactive) | > 100 µM (inactive) | > 100 µM (inactive) | > 100 µM (inactive) | > 100 µM (inactive) | > 100 µM (inactive) | > 100 µM (inactive) | > 100 µM (inactive) | > 100 µM (inactive) | > 100 µM (inactive) | > 100 µM (inactive) | > 100 µM (inactive) | > 100 µM (inactive) | > 100 µM (inactive) | > 100 µM (inactive)
7 | CCC1=CC2Cc3nc4cc(Cl)ccc4c(N)c3C(C1)C2 (centres undefined) | 5.04 µM (inactive) | 7.59 µM (inactive) | 7.8 µM (inactive) | 15.5 µM (inactive) | 2.29 µM (inactive) | 3.25 µM (inactive) | 5.58 µM (inactive) | 5.52 µM (inactive) | 8.3 µM (inactive) | 7.29 µM (inactive) | 2.03 µM (inactive) | 4.62 µM (inactive) | 1.57 µM (inactive) | 12.1 µM (inactive) | 12.5 µM (inactive) | 6.35 µM (inactive) | 4.38 µM (inactive) | 8.59 µM (inactive) | 4.92 µM (inactive)
8 | COc1ccc(C(=O)C#Cc2cn(C3CC(O)C(CO)O3)c(=O)[nH]c2=O)cc1 (centres undefined) | 49.7 µM (inactive) | > 100 µM (inactive) | > 100 µM (inactive) | 20.2 µM (inactive) | > 10 µM (inactive) | 35.5 µM (inactive) | > 100 µM (inactive) | > 100 µM (inactive) | 42.6 µM (inactive) | 19.2 µM (inactive) | > 100 µM (inactive) | 53 µM (inactive) | 28.4 µM (inactive) | > 100 µM (inactive) | 28.7 µM (inactive) | > 100 µM (inactive) | 78.3 µM (inactive) | > 100 µM (inactive) | > 100 µM (inactive)
9 | S=c1[nH]c(=S)c2cc(Sc3ccc4[nH]c(=S)[nH]c(=S)c4c3)ccc2[nH]1 | 21.5 µM (inactive) | 59.7 µM (inactive) | 35.2 µM (inactive) | 31.2 µM (inactive) | 20.8 µM (inactive) | 59.6 µM (inactive) | 59.6 µM (inactive) | 28 µM (inactive) | > 100 µM (inactive) | 36.1 µM (inactive) | 17.7 µM (inactive) | 24.2 µM (inactive) | 46.9 µM (inactive) | 24.3 µM (inactive) | 40 µM (inactive) | 19.5 µM (inactive) | 25.1 µM (inactive) | 33 µM (inactive) | 26.9 µM (inactive)
10 | Cc1ccc(-c2nc(C)c(C(=O)Nc3ccc(Cl)cc3)s2)cc1 | 15.2 µM (inactive) | 61.7 µM (inactive) | 18.4 µM (inactive) | 13.9 µM (inactive) | > 100 µM (inactive) | > 100 µM (inactive) | 30.3 µM (inactive) | 24.2 µM (inactive) | 29.2 µM (inactive) | 24.1 µM (inactive) | > 100 µM (inactive) | 26.5 µM (inactive) | 20.1 µM (inactive) | 19 µM (inactive) | 31.4 µM (inactive) | 15.1 µM (inactive) | 20.6 µM (inactive) | 22.1 µM (inactive) | 18.8 µM (inactive)
11 | Nc1nc(OCC2CCCCC2)c2nc[nH]c2n1 | 17 µM (inactive) | 15.5 µM (inactive) | 1.3 µM (inactive) | 13.9 µM (inactive) | 19.1 µM (inactive) | 0.957 µM (active) | 25 µM (inactive) | 17.7 µM (inactive) | 28.6 µM (inactive) | 9.25 µM (inactive) | 11.1 µM (inactive) | 11.2 µM (inactive) | 15.2 µM (inactive) | 14.9 µM (inactive) | 10.2 µM (inactive) | 16.1 µM (inactive) | 7.35 µM (inactive) | 16.8 µM (inactive) | 7.18 µM (inactive)
